Laboratory results taken from US7146204B2, “Method and apparatus for quantitatively evaluating a kidney” (Yeda Research and Development Co., Ltd., priority 2002, dated 2006).
“Also recorded” adds a separate entry of the source.

What was measured:
[1] = urine sodium concentration by 23Na NMR spectroscopy; format: in vivo, rat; conditions: urine collected from 15 min after injection, n=3
Experimental: (§1) Mannitol solution (20%, 1 ml) and saline solution (0.9% NaCl, 1 ml) were injected as a bolus into the tail vein. Only one diuretic was injected into each rat.
Urine sodium: Urine samples of untreated (control) and diuretic rats were collected in a metabolic cage. Collection of the urine from the diuretic rats started 15 minutes after injection of the diuretic, when the urine flow was constant. The urine samples were then centrifuged, and the supernatants transferred to a 5 mm NMR tube placed in the center of a 10 mm NMR tube. The external tube was used as an external reference, and contained a solution of 120 mM NaCl and 5 mM of the shift reagent: thulium (III) 1,4,7,10-tetraacyclododecane-1,4,7,10-tetrakis (methylene phosphonate) (TmDOTP^5−) (Macrocyclics, Dallas, Tex., USA) reaching total [Na^+] of 150 mM. ^23Na NMR spectra were recorded with a Bruker DMX-400 spectrometer (Bruker, Rheinstetten, Germany), using a multinuclei broad band probe at 106 MHz by acquiring 10 transients with 90° pulses, pulse-to-acquisition time of delay (DE) of 6 μs, 0.47 sec repetition time (TR) and 0.27 sec acquisition time. Analysis of the ^23Na spectra was performed with an XWIN-NMR Bruker software package. Sodium concentration in the urine was calculated from the integrated area of its signal referenced to the integrated area of the shifted signal of the sodium in the external tube solution (150 mM).

rat kidney [2] = assay: dynamic 23Na MRI of renal sodium distribution after bolus injection of diuretic; format: in vivo; conditions: for characteristic time constant of sodium decay in the inner medulla: dynamic 23Na MRI after bolus injection, fitted to Equation 1, n=7; for decrease in sodium level in the inner medulla: relative to pre-treatment, diuresis steady state level, n=7
Experimental: Materials and Methods—Animals: Studies were performed on female Lewis rats, 2–4 months old and weighing 250–300 g, that had free access to food and water. […] All animal protocols and maintenance procedures were in accordance with the guidelines of the Committee on Animals of the Weizmann Institute of Science, and were approved by this Committee. […] Only one diuretic was injected into each rat. […] Image analysis: Analysis of the kidney images was performed on selected regions of interest (ROIs) in the outer, median and inner parts of the kidney, representing the cortex, outer and inner medulla, respectively. The ROIs were defined on the corresponding coronal proton image recorded prior to the sodium images, at the same spatial resolution. The average digitized pixel intensity for each ROI was measured, and the sodium gradient was assessed by averaging the ratio of the sodium signal intensity between the inner and the outer medulla, and between the inner medulla and the cortex. […] In this analysis, the signal intensity in each pixel was measured from the cortex to the inner medulla along the corticomedullary axis. This yielded a graph of pixel signal intensity versus the distance of the pixel from the cortex. In the dynamic study, the average signal intensities of the inner medulla and the cortex ROIs, defined on the proton image, were measured in sodium images recorded sequentially and were then plotted against time. Statistical analysis to evaluate differences between pixels or ROIs in the same kidney, or before and after diuretic treatment, were performed by a two-tailed paired Student's t-test; otherwise, the unpaired version of this test was used. Results are presented as mean±SEM.

rat kidney [3] = assay: steady state diuresis 23Na MRI of corticomedullary sodium gradient; format: in vivo; conditions: for reduction in sodium content in the inner medulla (summary statement): after bolus injection; for change of the cortical-outer medullar sodium gradient versus control / cortical-outer medullar sodium gradient (slope): pixel-by-pixel analysis
Experimental: Materials and Methods—Animals: Studies were performed on female Lewis rats, 2–4 months old and weighing 250–300 g, that had free access to food and water. Before MRI scanning, the rats were anesthetized by an intraperitoneal injection of sodium pentobarbital at a dosage of 0.04 mg/g body wt. All animal protocols and maintenance procedures were in accordance with the guidelines of the Committee on Animals of the Weizmann Institute of Science, and were approved by this Committee.
as §1
In vivo MRI: ^1H and ^23Na spectra and images were recorded at 200 and 53 MHz, respectively with a 4.7 T Biospec spectrometer (Bruker, Rheinstetten, Germany) using a home-built 3 cm double-tuned surface coil. The rat was placed on the coil in a supine position, keeping the estimated kidney position approximately in the middle of the coil. 3D ^1H gradient echo images were recorded to localize the exact kidney position, using TE/TR of 6/30 ms FOV of 12×12×3.2 cm and a matrix of 256×256×32. For defining the regions of interest (ROI), 3D ^1H images were recorded with the same spatial resolution as that of the sodium images.
In the “steady state” studies, sodium images were recorded prior to injection of the diuretic (control measurement) and fifteen minutes after its injection. 3D ^23Na gradient echo images were recorded using a TE/TR of 3.1/60 ms and a 90° OSIRREAD adiabatic pulse, FOV of 12×12×8 cm, and a matrix of 128×128×16 with 10 or 20 scans (20 or 40 min, respectively).
Image analysis: Analysis of the kidney images was performed on selected regions of interest (ROIs) in the outer, median and inner parts of the kidney, representing the cortex, outer and inner medulla, respectively. The ROIs were defined on the corresponding coronal proton image recorded prior to the sodium images, at the same spatial resolution. The average digitized pixel intensity for each ROI was measured, and the sodium gradient was assessed by averaging the ratio of the sodium signal intensity between the inner and the outer medulla, and between the inner medulla and the cortex.
In addition, a pixel-by-pixel analysis was performed, in order to assess the behavior of the NMR sodium signal along the corticomedullary axis. In this analysis, the signal intensity in each pixel was measured from the cortex to the inner medulla along the corticomedullary axis. This yielded a graph of pixel signal intensity versus the distance of the pixel from the cortex. In the dynamic study, the average signal intensities of the inner medulla and the cortex ROIs, defined on the proton image, were measured in sodium images recorded sequentially and were then plotted against time.
Statistical analysis to evaluate differences between pixels or ROIs in the same kidney, or before and after diuretic treatment, were performed by a two-tailed paired Student's t-test; otherwise, the unpaired version of this test was used. Results are presented as mean±SEM.
In-vivo MRI: ^1H and ^23Na images and spectra were recorded at 200 and 53 MHz respectively with a 4.7 T Biospec spectrometer (Bruker, Karlsrhue, Germany) using a home built 3-cm, ^1H and ^23Na tuned surface coil. The rat was placed on the coil in a supine position with the kidney positioned in the middle of the coil. Axial and coronal 3D ^1H gradient echo images were recorded for localization of the kidney using an echo time/repetition time (TE/TR) of 6/30 ms FOV of 12×12×3.2 cm and matrix of 256×256×32. 3D gradient echo ^23Na images were recorded using (TE/TR) of 1.7/60 ms and a 90° OSIRREAD adiabatic pulse, field of view (FOV) of 12×12×8 […], and matrix of 128×128×16, with 20 scans (40 min).
The sodium image was analyzed by a pixel by pixel analysis that was performed in order to assess the behavior of the NMR sodium signal along the corticomedullary axis.

rat kidney [4] = assay: as above; format: in vivo; conditions: mannitol (1 ml, 0.1N), n=7
[5] = steady state diuresis, furosemide 10 mg/kg body wt, n=7

NS(=O)(=O)c1cc(C(=O)O)c(NCc2ccco2)cc1Cl [furosemide]
increase of urine sodium concentration compared to the control [1]: 50±5% | characteristic time constant of sodium decay in the inner medulla (rat kidney [2]): 6.1 ± 0.8 min | decrease in sodium level in the inner medulla (rat kidney [2]; dynamic study): 44±6% | reduction in sodium content in the inner medulla (summary statement) (rat kidney [3]; diuretic steady state): 50% | change of the cortical-outer medullar sodium gradient versus control (rat kidney [3]; diuresis steady state): five-fold reduction | cortical-outer medullar sodium gradient (slope) (rat kidney [3]; diuresis steady state, n=7): 0.10±0.01 a.u.×mm^−1 | cortico-outer medullar sodium gradient during furosemide diuresis (rat kidney [3]; furosemide steady state diuresis, 10 mg/kg wt, n=7): 0.10±0.01 a.u×mm^−1 | effect on the corticomedullary sodium gradient (rat kidney [3]; steady state diuresis): almost completely cancelled; also recorded: almost complete cancellation | decrease in sodium signal intensity in the inner medulla (rat kidney [3]; steady state diuresis, furosemide 1 mg/kg body weight, n=3): 10±2% | decrease in sodium signal intensity in the inner medulla (rat kidney [3]; steady state diuresis, furosemide 7 mg/kg body weight, n=4): 40±4% | decrease of average sodium signal intensity in the inner medulla (rat kidney [3]; [5]): 47±5% | decrease of average sodium signal intensity in the outer medulla (rat kidney [3]; [5]): 6±2% | increase of average sodium signal intensity in the cortex (rat kidney [3]; [5]): 25%±3%

OC[C@@H](O)[C@@H](O)[C@H](O)[C@H](O)CO [mannitol]
decrease of urine sodium concentration compared to the control [1]: 49±3% | characteristic time constant of sodium decay in the inner medulla (rat kidney [2]): 2.5 ± 0.4 min | total increase in sodium concentration in the cortex (rat kidney [2]; dynamic study, after bolus injection): about 25% | rate of sodium reduction in the inner medulla relative to furosemide (rat kidney [2]; dynamic study, p=0.002): twice as rapidly; also recorded: more than twofold faster; also recorded: twofold faster decay | decrease in sodium level in the inner medulla (rat kidney [2]; dynamic study): 52±5% | decrease of sodium concentration in the inner medulla (rat kidney [4]): 52±1% | increase of sodium signal intensity in the cortex (rat kidney [4]): 20±2% | increase of sodium signal intensity in the outer medulla (rat kidney [4]): 13±1% | reduction in sodium content in the inner medulla (summary statement) (rat kidney [3]; diuretic steady state): 50% | cortex to outer medulla sodium gradient relative to furosemide induced diuresis (rat kidney [3]; diuresis steady state): fivefold higher | change of the cortical-outer medullar sodium gradient versus control (rat kidney [3]; diuresis steady state): remained similar to that seen in control kidney | cortical-outer medullar sodium gradient (slope) (rat kidney [3]; diuresis steady state, n=7): 0.45±0.12 a.u.×mm^−1 | change of the cortical-outer medullar sodium gradient versus control (rat kidney [3]; diuresis steady state, listed as Mannitol): did not affect | sodium concentration in the outer medulla compared to control (rat kidney [3]; diuretic steady state): increased compared to control | effect on the corticomedullary sodium gradient (rat kidney [3]; steady state diuresis): marked breakdown
